Results taken from patent publication US12049543B2, “Copolymer containing cyclic nitroxide radical and trialkoxysilyl in side chain, and use thereof” (CrestecBio Inc., priority 2017, dated 2024).

System: TWNT-1 (CVCL J364) hepatic stella cells
Details: incubation 2 days
Description: In the case of this assay kit, it is necessary to note that, although the sorafenib@siRNP can be dissolved in phosphate-buffered saline (PBS), free sorafenib is required to be dissolved in dimethylsulfoxide (DMSO).

CNC(=O)c1cc(Oc2ccc(NC(=O)Nc3ccc(Cl)c(C(F)(F)F)c3)cc2)ccn1 [sorafenib]
inhibition of proliferation of TWNT-1: inhibits the proliferation of TWNT-1
